In data set [1] the test system is guinea pigs with lens induced myopia. The data set can be described thus: Lens induced (LI, -4D lens) myopia model, peribulbar injection, Example 3. In kind it is in vivo, guinea pig. Particulars: bendazac lysine 0.5 mg/day peribulbar injection.
The test system of data set [2] is form deprivation myopia (FDM) guinea pigs. Description: Dose-response of bendazac lysine (0.01%-0.5%) in form deprivation myopia model, Example 5. The source says: To be more intuitive, percentage are converted to milligram units when plotting.
Data set [3] has the same test system. Description: Choroidal thickness (OCT) in FDM model, Example 6. Type of data set: in vivo, guinea pig. Here is the method:
(§1) The lenses were purchased from Wenzhou Focusee Technology Co. Ltd. The specific parameters were: center degree 4D, base curve 16 mm, and diameter 11.8 mm. The lenses were fixed in front of the right eye (experimental eye) of the guinea pig and the left eye (fellow eye) was left untreated. […] The choroidal thickness of all eyes in the two myopia models was detected by Spectralis HRA+OCT (Heidelberg Engineering, Heidelberg, Germany) at 30-60 min after the last administration. […] The statistical method was an independent sample T-test.

Data set [4] concerns lens induced myopia (LIM) guinea pigs. Description: Choroidal thickness (OCT) in LIM model, Example 6. In kind it is in vivo, guinea pig. Particulars: 0.5% bendazac lysine (BDL(S)) subconjunctival injection once daily for 1 week, 30-60 min after last administration. Here is the method:
as §1

For data set [5], the system named is form deprivation myopia guinea pigs. The data set can be described thus: Direct eye drop administration in form deprivation myopia model, Example 7. Particulars: for inhibition rate on myopia: direct eye drop 25 μl twice per day, 0.5% bendazac lysine (self-made); for elongation of axial length compared with the normal saline group: eye drop twice per day for 2 weeks, statistical difference. The source says:
All efficacy experiments above were repeated at least twice.

Data set [6] has the same test system. The data set can be described thus: Lysine alone and bendazac alone in form deprivation myopia model, Example 8. Type of data set: in vivo, guinea pig. Conditions: FD; for progress of myopia (diopter becoming negative, vitreous chamber depth, axial length): subconjunctival injection 100 μl once daily for 2 weeks, equimolar (11.669 mM) preparations, FIG. 8; for ocular abnormalities / pupil, corneal curvature, anterior chamber depth and lens thickness: subconjunctival injection once daily for 2 weeks; for pupil, corneal curvature, anterior chamber depth and lens thickness: FIGS. 10 and 11; for myopia inhibition rate compared with DMSO vehicle control group: bendazac 3.3 mg/ml (11.669 mM) subconjunctival injection 100 μl once daily.

The test system of data set [7] is guinea pigs with form deprivation myopia. Description: Form deprivation (FD) myopia model, peribulbar injection, Example 3. Particulars: for induced myopia (diopter) / myopia inhibition rate compared with normal saline group: peribulbar injection once daily (bendazac lysine 0.5 mg/day; atropine 0.1%, 100 μL).
Data set [8] concerns form deprivation myopia guinea pigs. Description: m-Hydroxy methylaniline in form deprivation myopia model, Example 10. In kind it is in vivo, guinea pig. Particulars: FD; for effect of preventing or treating myopia: subconjunctival injection 100 μl once daily for 1 week, atropine 0.1%. Here is the method: The efficacy was evaluated using the guinea pig in form deprivation myopia model described in this application. All subjects were measured for diopter and axial length. […] Diopter and axis length parameters were measured at the beginning and after the end of the efficacy experiment.

Data set [9] has the same test system. Description: Sorbinil and Zopolrestat in form deprivation myopia model, Example 9. Particulars: FD, Sorbinil 100 μM, Zopolrestat 1 mM; for diopter or axial length parameter versus the vehicle group: each test time point (1-week, 2-week), FIG. 13; for corneal curvature, anterior chamber depth and lens thickness: FIG. 14.
The mark [10] stands for this setting: LI (-4D lens), 1-week of administration.
[11] abbreviates: FD, 0.5% bendazac lysine, 0.1% atropine.
The mark [12] stands for this setting: m-hydroxy methylaniline 5 mM, FIG. 15.

Turning to `O=C(O)COc1nn(Cc2ccccc2)c2ccccc12` [bendazac lysine, L-lysine (1-benzyl-1H-indazol-3-yloxy) acetate], in data set [1] (setting [10]), the “induced myopia (diopter)” value is given as −3.49±1.15 D and the “myopia inhibition rate compared to the normal saline group” value is 21.0%. For the same compound, the “elongation of the vitreous chamber depth and the axial length” value in data set [1] (LI, 1 week) is given as “inhibited”. For the same compound, the “effect in terms of the parameter diopter” value in data set [2] (FDM, 0.01% bendazac lysine, 2-week, no statistical difference) is recorded as “slightly stronger than the negative control group”. The “progress of myopia, dose-response” value in [2] (FDM, 0.01%, 0.05%, 0.1%, 0.5% in normal saline, subconjunctival injection 100 μl once daily for 2 weeks) is given as “dose-dependently retarded the progress of myopia”. Further, the “therapeutic effect on myopia (progress of diopter becoming negative)” value in [2] (FDM, 0.05% and 0.1% bendazac lysine preparations) is on record as “significant therapeutic effect on myopia”. In [2] (FDM, 0.05%, 0.1% and 0.5% bendazac lysine, FIG. 3), the “increase in vitreous chamber depth (VCD) and elongation of axial length (AL)” value was “inhibit the increase in vitreous chamber depth (VCD) and the elongation of axial length (AL)”. In addition, the “therapeutic effect on myopia in terms of diopter, compared with 0.1% atropine” value in [2] (FDM, 0.5% bendazac lysine, 1-week after administration, no statistical difference) is “better therapeutic effect on myopia than 0.1% atropine”. For the same compound, in [2] (guinea pig, in vivo), the “anterior chamber depth, lens thickness and pupil” value is on record as “not affected”; the “ocular irritation and ocular abnormalities during administration” value was “No ocular irritation and any ocular abnormalities were observed”. The “corneal curvature (RCC), anterior chamber depth (ACD), lens thickness (LT)” value in data set [3] (FDM and LIM, 0.5% BDL(S)) is “unaffected”. Moreover, the “mean difference in choroidal thickness between the experimental eye and the fellow eye” value in data set [3] (FDM, 0.5% bendazac lysine eye drops (BDL(S)) subconjunctival injection 100 μl once daily for 2 weeks, 30-60 min after last administration) is given as −9.20 μm. The “mean difference in choroidal thickness between the experimental and the fellow eyes” value in data set [4] is −6.31 μm. In data set [5] (FD, 1-week, 0.1% atropine), the “inhibition rate on myopia” value came out at 35.5%. Further, the “inhibition rate on myopia” value in [5] (FD, 2-week, 0.1% atropine) turned out to be 33.9%. In addition, the “elongation of axial length compared with the normal saline group” value in data set [5] (setting [11]) was “significantly inhibit elongation of axial length”. For the same compound, in [5] (guinea pig, in vivo), the “corneal curvature, anterior chamber and lens” value is “not affected”; the “ocular adverse reactions during the administration” value is given as “no obvious ocular abnormalities”. Besides, in [6], the “progress of myopia (diopter becoming negative, vitreous chamber depth, axial length)” value is on record as “effectively inhibited the progress of diopter becoming negative”; the ocular abnormalities entry is listed as “no obvious ocular abnormalities”; the “pupil, corneal curvature, anterior chamber depth and lens thickness” value is “not affected”. The “corneal curvature (RCC), anterior chamber depth (ACD), lens thickness (LT)” value in data set [7] (FD and LI groups, 0.5 mg/day peribulbar injection, FIG. 2) was “not affected”. In addition, in [7] (FD, 1-week of administration), the “induced myopia (diopter)” value was −2.15±1.09 D and the “myopia inhibition rate compared with normal saline group” value was found to be 42.6%. In [7] (FD, 2-week of administration), the “induced myopia (diopter)” value is −3.46 D and the “myopia inhibition rate compared with normal saline group” value came out at 43.9%. In addition, the “increase in vitreous chamber depth and axial length” value in data set [7] (FD, bendazac lysine 0.5 mg/day peribulbar injection, FIG. 1) is on record as “inhibited”.
In the case of `NCCCC[C@H](N)C(=O)O` [lysine], in [6], the “progress of myopia (diopter becoming negative, vitreous chamber depth, axial length)” value was “no inhibitory effect on the progress of myopia”; the ocular abnormalities entry is “no obvious ocular abnormalities”; the “pupil, corneal curvature, anterior chamber depth and lens thickness” value was “not affected”.
For the compound m-hydroxy methylaniline, the “elongation of axial length and increase of vitreous chamber depth” value in [8] (1 week, m-hydroxy methylaniline 5 mM) is “no inhibitory effect on elongation of axial length and no slowing effect on the increase of vitreous chamber depth”. Further, in data set [8] (setting [12]), the “effect of preventing or treating myopia” value is listed as “no effect of preventing or treating myopia”.
Take `O=C1NC(=O)[C@@]2(CCOc3ccc(F)cc32)N1` [Sorbinil]: in [9], the “diopter or axial length parameter versus the vehicle group” value is recorded as “no significant difference”; the “corneal curvature, anterior chamber depth and lens thickness” value was “no effect”. Moreover, the “therapeutic effect on myopia” value in data set [9] (subconjunctival injection 100 μl once daily for 2 weeks) is reported as “no therapeutic effect on myopia”.
In the case of `O=C(O)Cc1nn(Cc2nc3cc(C(F)(F)F)ccc3s2)c(=O)c2ccccc12` [Zopolrestat], in [9], the “diopter or axial length parameter versus the vehicle group” value is recorded as “no significant difference”; the “corneal curvature, anterior chamber depth and lens thickness” value is recorded as “no effect”.
`O=C(O)COc1nn(Cc2ccccc2)c2ccccc12` [bendazac, α-[(1-benzyl-1H-indazol-3-yl)oxy] acetic acid]: the “myopia inhibition rate compared with DMSO vehicle control group” value in [6] (1-week) amounted to 33.4%; in data set [6] (2-week), 30.1%. Further, the “mean difference in the choroidal thickness between the experimental eyes and the fellow eyes” value in data set [6] (2-week after administration of bendazac alone, FIG. 12) is −8.47 μm. Moreover, in data set [6] (bendazac alone, statistical difference, FIG. 9), the “elongation of axial length and increase of vitreous chamber depth compared with the DMSO vehicle group” value is “significantly inhibited elongation of axial length and reduced the increase of vitreous chamber depth”.
In the case of `CN1[C@@H]2CC[C@H]1C[C@@H](OC(=O)C(CO)c1ccccc1)C2` (some centres unmarked) [atropine], in [5] (FD, 0.01% atropine eye drops, same administration conditions), the “therapeutic effect (diopter or axial length parameter)” value is given as “No therapeutic effect was observed”. In addition, the “inhibition rate on myopia” value in [5] (FD, 1-week, 0.1% atropine) is reported as 28.1%; in data set [5] (FD, 2-week, 0.1% atropine), 36.9%. Further, the “elongation of axial length compared with the normal saline group” value in data set [5] (setting [11]) is recorded as “significantly inhibit elongation of axial length”. Besides, the “ocular adverse reactions during the administration” value in data set [5] (FD, eye drop twice per day, 0.5% bendazac lysine, 0.1% atropine) is on record as “pupil dilation adverse reactions”. For the same compound, the “corneal curvature, anterior chamber and lens” value in data set [5] (FD, eye drop twice per day, 0.5% bendazac lysine, 0.1% atropine, FIG. 7) is on record as “not affected”. The “anterior chamber depth and lens thickness” value in data set [8] (0.1% atropine, FIG. 15) was “unaffected”. For the same compound, the pupil entry in data set [8] (0.1% atropine, all animals tested in this group) was “pupil dilation”. The “effect of preventing or treating myopia” value in [8] (setting [12]) is reported as “normal effect for treating myopia”.

These data come from patent publication US20240216332A1, “METHOD AND PHARMACEUTICAL COMPOSITION FOR TREATING MYOPIA” (GRAND PHARMA (CHINA) CO., LTD., priority 2021, published 2024).
